For orientation: IC50 means the concentration that inhibits the measured activity by half.

“And” between values parts separate entries of the source, which are not always exact repeats. Equal values may be shown once.

The source of these data is paper PMC8667918, “Synthesis and biological evaluation of halogenated phenoxychalcones and their corresponding pyrazolines as cytotoxic agents in human breast cancer” (Journal of Enzyme Inhibition and Medicinal Chemistry, 2021).

One data set in a line: in vitro. The settings on record: human. As for the experimental part:
(§1) Human breast cancer cell line MCF-7 and normal breast cell line MCF-10a were obtained from American type culture collection, MCF-7 cells were cultured using Dulbecco’s Modified Eagle Medium DMEM (Invitrogen/Life Technologies) supplemented with 10% FBS (Hyclone), 10 µg/ml of insulin (Sigma), and 1% penicillin-streptomycin. MCF-10a cell line was cultured using DMEM medium supplemented with 10% FBS, 1% sodium pyruvate, 1% MEM NEAA, 20 ng/ml human epidermal growth factor (HEGF), 10 μg/ml insulin and 0.05 mM hydrocortisone. The cells were incubated at 37 °C in a humidified atmosphere of 5% CO2.
(§2) The anticancer effect of phenoxychalcones and N-acetylpyrazolines on the viability of both tumour and normal cells was evaluated using МТТ assay as a rapid colorimetric assay. It is based on the ability of mitochondrial dehydrogenases of viable cells to reduce yellow tetrazolium salt MTT to blue formazan in quantities proportional to the number of living cells. The cells were incubated with the medium alone or with the tested compounds at concentrations of 100 µM, 25 µM, 6.25 µM, 1.56 µM and 0.39 µM for 48 h. […] Then, 20 μL MTT solution was added to each well and mixed. After 4 h, the supernatants were removed and 100 μL DMSO was added to each well to dissolve the precipitate. The viability of cells was estimated by measuring the absorbance at 570 nm using a Bioline ELIZA plate reader. The cell viability percentage was calculated based on the absorbance ratio between cell culture treated with the compounds and the untreated control multiplied by 100. Selectivity index (SI) was calculated as the ratio of cytotoxicity (IC50) on normal cells (MCF-10a) to cancer cells (MCF-7).

For data set [1], the system named is MCF-7 cells. The experiment in a line: Intracellular reactive oxygen species (ROS) analysis with H2DCFDA. Format: cell-based, human. The conditions noted are these: MCF-7, 1.52 µM. As for the experimental part:
Intracellular ROS was detected by cell-permeable fluorogenic probe H2DCFDA. Cell culture subdivided into three groups. The groups are the negative control (untreated MCF-7 cells), the positive control group (MCF-7 cells treated with H2O2), and test group (MCF-7 cells treated with compound 2c). After removing the culture supernatants, the cells were then incubated in fresh medium with 10 µM H2DCFDA at the dark at 37 °C for 1 h. The cells were washed with PBS buffer, then, harvested and the pellets were suspended in PBS. Samples were analysed ROBONIK P2000 ELISA reader wavelength 450 nm.

Data set [2] relates to MCF-7 breast cancer cell line. Kind of data set: MTT assay, cytotoxicity against breast cancer cell line MCF-7. As for the experimental part: as §1, §2
A general note: Formazan colour is commonly taken as a measure of viable cells.

The test system of data set [3] is MCF-7 cells. Kind of data set: Annexin V-FITC/PI apoptosis assay by flow cytometry. Format: cell-based, human. The settings on record: 24 h. As for the experimental part:
Apoptosis assessment was carried out by flow cytometry using Annexin V-FITC and propidium iodide double-staining apoptosis detection kit (Biovision, USA) according to the manufacturer instructions. Annexin V is a protein with high affinity for phosphatidylserine (PS). The latter is a cell membrane component that translocate from the inner face of the plasma membrane to the cell surface soon after initiating apoptosis. […] The cells were then collected by centrifugation and re-suspended in 500 μL of binding buffer. Annexin V-FITC and PI double staining was performed by adding 5 μL of Annexin V-FITC and 5 μL of PI. The cells were then incubated in dark, at room temperature for 5 min. After incubation, cell fluorescence was evaluated using FacsCalibur (BD Biosciences, USA). Dot-plot graphs were used to illustrate the results.

Data set [4] has as its system MCF-7 cells. The experiment in a line: Cell cycle analysis by propidium iodide flow cytometry. Format: cell-based, human. As for the experimental part:
The cell cycle analysis was carried out by flow cytometry using ab139418_propidium iodide flow cytometry kit/BD (Abcam, Cambridge, UK) according to the manufacturer instructions. […] After treatment, the cells were washed twice with ice-cold phosphate buffer saline (PBS) and collected by centrifugation. The cells were then fixed using ice-cold 66% (v/v) ethanol, washed with PBS, and re-suspended with 0.1 mg/mL RNase to digest cellular RNA and thus minimise stained RNA in the background. The cells were then stained with […] propidium iodide (PI), a fluorescent molecule with the ability to bind to nucleic acid. PI binds to the DNA in cells in proportion to its amount. As the DNA content is different among cells in different phases of cell cycle, the stage of cell growth can be determined based on fluorescence intensity. Cell fluorescence was evaluated using FacsCalibur (BD Biosciences, USA) and analysed using Cell- Quest software (Becton Dickinson)[41]. Cell cycle analysis of MCF-7 cells without any treatment was used as control.
In general terms: A flow cytometer gives signals particle by particle.

In data set [5] the test system is p38 MAPK (phosphorylated and total) in MCF-7 cells. Kind of data set: p38 MAPK (phosphorylated and total) ELISA in treated cells. The format is cell-based, human. The settings on record: MCF-7, 1.52 µM, vs untreated cells. Here is the method:
Measurements were performed using ELISA kits (R&D systems, Minneapolis, MN, USA ELISA (Cat. # KHO0071) and p38 MAPK (Total) ELISA, according to the manufacturer’s instructions.
On the technique in general: ELISA stands for enzyme-linked immunosorbent assay.

The mark [6] stands for this setting: MCF-7, 1.52 µM, in comparison to the control (DMSO).
[7] abbreviates: MCF-7, 1.52 µM, relative to control (DMSO).

As to `Cc1ccc(C(=O)C=Cc2ccc(Oc3ccc(Br)cc3)cc2)cc1` [Compound 2c, 3–(4-(4-Bromophenoxy)phenyl)-1-(p-tolyl)prop-2-en-1-one], the IC50 in the data set “in vitro” was determined as 23.2 ± 0.88 µM. For the same compound, the “ROS induction higher than control” value in the data set with MCF-7 cells [1] came to 10%. For the same compound, in data set [2], the “fold more active than 2a” value amounted to 5.6 fold and the “fold more active than 2b” value worked out at 8.7 fold. Besides, the concentration for half-maximal inhibition (IC50) in data set [2] (Homo sapiens, MCF7, 48 h, read-out: In vitro cytotoxicity IC50 MCF-7) worked out at 1.52 ± 0.03 µM. For the same compound, the Selectivity index in data set [2] (ratio of IC50 on normal cells (MCF-10a) to cancer cells (MCF-7)) is 15 and 15.24. Moreover, in the data set with MCF-7 cells [3] (MCF-7, 1.52 µM (IC50)), the “apoptotic cells percentage, early apoptosis” value turned out to be 5.17%; the “apoptotic cells percentage, late apoptosis” value is reported as 21.96%; the percentage necrosis came to 2.28%; the “percentage of total apoptosis” value is 29.41%. In the data set with MCF-7 cells [3] (MCF-7, 1.52 µM), the “elevation in late apoptosis, fold more than control” value is given as 57.78 fold; the “increase in early apoptosis, fold more than control” value is given as 9.0 fold; the “increase in total apoptosis, fold compared to the control” value is given as 16.24 fold. Also, the “phase of cell cycle arrest” value in the data set on MCF-7 cells [4] (MCF-7, 1.52 µM) is given as “G2/M phase”. Further, in the data set on MCF-7 cells [4] (MCF-7, 1.52 µM (IC50), 24 h), the “cell population %G0/G1” value was 24.92%, the “cell population %G2/M” value is recorded as 45.86%, the “cell population %Pre G1” value was determined as 29.41% and the “cell population %S” value was 29.22%. Also, in the data set with MCF-7 cells [4] (setting [6]), the “augmentation of proportion of cells in the G2/M phase” value was 4.25 fold and the “augmentation of proportion of cells in the pre-G1 phase” value is reported as 16.24 fold. Also, in the data set on MCF-7 cells [4] (setting [7]), the “decline in the cell population at the G0/G1 phase” value came to 54.73% and the “decline in the cell population at the S phase” value is reported as 14.5%. For the same compound, in data set [5], the “down-regulation of total p38 MAPK” value is reported as about 40% and the “interference with p38 MAPK phosphorylation (decrease of phosphorylated p38 MAPK)” value is on record as about 60%.
